Results on one substance are retold here after article PMC8088467 (Cell Proliferation, 2021).

The experiment relates to Candida albicans SC5314. As to the kind of experiment: Morphology assay (light microscope and SEM). It is filed as cell-based. As to conditions: 1 x 10^6 CFU/mL, RP medium, 8 hours 37°C; 200 nM TDNs, 20 µM His‐5 or 200 nM TDN/His‐5 (1:100); bright field images. As for the experimental part: Candida albicans SC5314 (wild type) obtained from our laboratory were commercially from the American Type Culture Collection. ^34 Candida albicans strains were propagated on liquid or solid YPD medium at 30°C. The yeast cells used in all experiments were in the exponential growth phase (OD600 = 0.6). For inducing hyphae, C. albicans cells were grown in RPMI 1640 medium containing 2.5% foetal calf serum, 2 mM L‐glutamine, 20 mM HEPES and 16 mM sodium hydrogen carbonate (pH 7.0) (RP medium) at 37°C.
After fixation, the samples were dehydrated with a gradient series of ethanol. Specimens were observed under a Leica DM1000 microscope (Leica Microsystems) and a scanning electron microscope (Inspect F, FEI, America). ^40 , ^44

Regarding Histatin 5, the “Morphology of C. albicans (hyphae formation)” value was “more yeast cells and fewer hyphae”.
